Measured values reported in patent US12629355B2, “Drug inhibitor against migration and invasion of cancer cells and methods of treating against metastasis of cancer cells” (HOWARD UNIVERSITY, priority 2019, dated 2026).

Key:
Assay type in all cases: cell-based
U251 cells [1] = assay: Actin stress fiber development in lamellipodia (FIG. 6); settings: U251 cells grown 72 h, versus DMSO
Description: Actin stress fibers are known to regulate the mesenchymal migrating cells by regulating the myosin-based contractility to achieve directional cell migration (Vallenius 2013). […] As these stress fibers are needed for other cellular functions required for directional movement, a lack of a visible stress fibers should inhibit cells treated with a representative compound (SD 29-14) from acquiring necessary traction generation to migrate. Actin stress fiber development has been reported to be needed to generate traction forces, establishment of the front-to-back polarity axis, retraction of the trailing edge, and extracellular matrix remodeling-development that collectively regulates the directional movement of migrating cell (Vallenius 2013). The cells were grown 72 h at conditions described for the cells imaged in FIG. 4 and were photographed under a Zeiss brand compound microscope at 40× magnification.

U251 cells [2] = assay: Wound migration assay (FIG. 9); settings: TGF, 0 h and 14 h after wounding
Description: During tumorigenesis, the epithelial-mesenchymal transition (EMT) plays a crucial role in migration and invasion of various cancers. EMT plays an essential role in tumor invasiveness and metastasis in cancer progression. Invasiveness (metastasis) of cancers is associated with a critical physiological process in which epithelial cells transition to mesenchymal transition or differentiation (EMT). Epithelial cells are not regarded as motile. However, in EMT, epithelial cells lose their epithelial characteristics, including their polarity (apical-basal polarity) and specialized cell-cell junctions, to acquire motility (migratory ability) behavior to become invasive mesenchymal cells, (e.g., Qu et al., Int. J. Clin. Exp. Med., 10 (6): 9019-9028 (2017); Xu et al., Cell Res. 19:156-172 (2009)). The motile mesenchymal cells can move (migrate) into surrounding tissue, even remote tissue. […] A wound was created by sliding a tip of a plastic pipette on the surface of almost 100 percent confluent cells and the size of the wound was measured at 0 h and after 14 h of wound creation. […]
In FIG. 10 and FIG. 11, U251 cells were plated in six-well plates and were allowed to reach about 90%-100% density. […] The size of wound was measured under a microscope at 0 and 14 h after wounding.

[3] = Toxicity judged from DAPI treated cell nucleus in immunofluorescence experiments; settings: 100 μM
Description: However, 100 μM might be a high concentration or dosing and may be higher than physiologically potent concentration.

In the case of `Nn1c(S)nnc1-c1cc(Cl)cc(Cl)c1` [SD 29-14], the “actin stress fiber development in lamellipodia” value (U251 cells [1]) is reported as “no visible stress fiber like radiating structures were visible”, the “cell migration into wound” value (U251 cells [2]) is reported as “the cells failed to migrate to cover the clear area” and the “toxicity to cells (uniform DAPI treated cell nucleus, drug treated vs non-treated)” value [3] is reported as “not exposed to a toxic amount”.
